Source: ChEMBL document CHEMBL1201862, “PubChem BioAssay data set” (2004)
Active and inactive are the calls of the source. Rule as the data show it, for most assays here: actives have a measured EC50 and inactives only a lower limit.

Experiments:
[1] = molecular target: T1, Rac GTPase-activating protein 1 (Homo sapiens, UniProt Q9H0H5); experiment: MgcRacGAP GTPase-activating activity inhibitors, confirmation, biochemical, ADP Hunter fluorescence, primary and confirmatory (AID 624330); type: functional
T1 sequence (Q9H0H5 whole entry): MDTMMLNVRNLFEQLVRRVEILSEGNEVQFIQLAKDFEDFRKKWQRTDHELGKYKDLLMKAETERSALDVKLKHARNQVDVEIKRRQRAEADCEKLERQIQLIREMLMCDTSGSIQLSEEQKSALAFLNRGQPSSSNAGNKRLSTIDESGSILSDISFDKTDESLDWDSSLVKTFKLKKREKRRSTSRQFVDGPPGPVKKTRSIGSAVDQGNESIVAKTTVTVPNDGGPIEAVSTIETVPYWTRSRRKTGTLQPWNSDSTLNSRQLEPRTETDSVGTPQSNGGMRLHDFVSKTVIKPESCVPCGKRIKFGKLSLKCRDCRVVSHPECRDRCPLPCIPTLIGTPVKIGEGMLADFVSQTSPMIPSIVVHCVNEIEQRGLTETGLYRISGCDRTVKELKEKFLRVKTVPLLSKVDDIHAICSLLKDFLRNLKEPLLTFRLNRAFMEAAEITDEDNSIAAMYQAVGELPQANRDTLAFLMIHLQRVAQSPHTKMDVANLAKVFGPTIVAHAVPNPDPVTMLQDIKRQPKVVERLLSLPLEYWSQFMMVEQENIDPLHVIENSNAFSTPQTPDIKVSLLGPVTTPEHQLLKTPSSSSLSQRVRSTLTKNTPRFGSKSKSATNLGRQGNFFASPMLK

[2] = Shn3 3'UTR reporter inhibitors, dose response, cell-based, Clone20 osteoblasts, firefly luciferase, cherry-picked (AID 624132); type: functional;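 also: firefly luciferase luminescence from reporter carrying the Shn3 3'UTR in osteoblasts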
[3] = HepG2 cell cytotoxicity, dose response, cytotoxicity control for Shn3 inhibitor project, CellTiter-Glo, cherry-picked (AID 624134); type: functional, cell-based
[4] = control 3'UTR Renilla luciferase suppression, dose response, counter-screen for Shn3 inhibitor project, cell-based, Clone20-Shn3RL, cherry-picked (AID 624133); type: functional
INS1 = experiment: beta cell apoptosis inhibitors, cytokine rescue, dose response, luminescence, retest (AID 449756); type: functional, cell-based; settings: Rattus norvegicus;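 also: cell death triggered by IL-1 beta plus TNF-alpha plus IFN-gamma mixture; protective hits raise ATP signal compared with cytokine alone wells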
[5] = Luminescence Cell-Based Dose Response HTS to Identify Activators of Luciferase Translation or Activity in H4 […] Cells. [Related pubchem assays: 1829 (Project Summary), 1814 (Primary HTS)]; type: functional
[6] = Luminescence Cell-Based Dose Confirmation HTS to Identify Activators of 5'UTR Stem-Loop Driven Alpha-Synuclein mRNA Translation in H4 Neuroglioblastoma Cells. [Related pubchem assays: 1829 (Project Summary), 1814 (Primary HTS)]; type: functional
H4 = experiment: Luminescence Cell-Based Dose Response HTS to Identify Activators of 5'UTR Stem-Loop Driven Prion Protein mRNA Translation in H4 Neuroglioblastoma Cells. [Related pubchem assays: 1829 (Project Summary), 1814 (Primary HTS)]; type: functional; settings: Homo sapiens
Large T antigen = Large T antigen (Simian virus 40, UniProt P03070); type: functional, Betapolyomavirus macacae;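 also: Confirmatory-stage PubChem screen for compounds that inhibit SV40 T antigen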
[7] = C. albicans growth with fluconazole, confirmation, fluorescence, retest (AID 2467); type: functional, cell-based
[8] = NIH-3T3 fibroblast cytotoxicity, dose response, cytotoxicity control, cell-based, fluorescence, Alamar Blue, secondary assay (AID 2327); type: functional;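 also: NIH-3T3 mouse fibroblasts cultured with fluconazole at 8 µg/mL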
[9] = Luminescence Cell-Based Dose Response HTS to Identify Inhibitors of 5'UTR Stem-Loop Driven Prion Protein mRNA Translation in H4 Neuroglioblastoma Cells. [Related pubchem assays: 1827 (Project Summary), 1813 (Primary HTS)]; type: functional
[10] = inhibitors of firefly luciferase expression or activity, dose response, H4 neuroglioma cells, luminescence (AID 1990); type: functional, cell-based
[11] = inhibitors of SNCA 5'UTR-driven reporter translation, confirmation, H4 neuroglioma cells, luminescence (AID 1988); type: functional, cell-based
[12] = inhibitors of intracellular T. cruzi replication, confirmation, NIH3T3 host cells, beta-gal luminescence (AID 2044); type: functional, cell-based;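 also: intracellular parasites grown in NIH/3T3 mouse fibroblasts as host cells; luminescent beta-galactosidase reporter signal from transgenic T. cruzi replicating inside host cells; inhibitors lower the luminescence signal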
[13] = molecular target: T2, Corticotropin-releasing factor receptor 2/Corticotropin-releasing factor-binding protein (Homo sapiens, UniProt P24387+Q13324); experiment: activators of CRF receptor 2 with binding protein – uHTS hits, confirmation (AID 602473); type: functional; settings: read-out: EC50_Mean
T2 sequence (Q13324 whole entry): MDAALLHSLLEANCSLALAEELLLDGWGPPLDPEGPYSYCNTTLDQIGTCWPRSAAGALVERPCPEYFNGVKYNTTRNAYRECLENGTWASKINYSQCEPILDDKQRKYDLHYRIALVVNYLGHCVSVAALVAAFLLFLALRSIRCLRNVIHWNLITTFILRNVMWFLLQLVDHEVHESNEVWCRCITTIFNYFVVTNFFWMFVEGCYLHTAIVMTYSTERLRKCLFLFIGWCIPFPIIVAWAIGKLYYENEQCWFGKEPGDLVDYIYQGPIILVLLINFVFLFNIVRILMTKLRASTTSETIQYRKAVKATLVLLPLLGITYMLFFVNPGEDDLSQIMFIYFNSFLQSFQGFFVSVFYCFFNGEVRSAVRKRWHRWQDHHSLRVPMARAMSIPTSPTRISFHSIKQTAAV
T2 sequence (P24387 whole entry): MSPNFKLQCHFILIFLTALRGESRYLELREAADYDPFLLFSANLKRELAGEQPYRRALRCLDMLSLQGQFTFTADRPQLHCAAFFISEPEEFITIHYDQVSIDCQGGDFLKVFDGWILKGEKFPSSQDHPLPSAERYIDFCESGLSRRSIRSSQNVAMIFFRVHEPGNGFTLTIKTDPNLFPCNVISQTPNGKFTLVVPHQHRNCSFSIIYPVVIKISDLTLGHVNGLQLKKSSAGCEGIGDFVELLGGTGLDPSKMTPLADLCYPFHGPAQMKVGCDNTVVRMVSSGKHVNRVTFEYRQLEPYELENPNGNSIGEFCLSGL

[14] = cytotoxicity toward NIH3T3 fibroblasts, dose response, counter-screen, cell-based, ATP luminescence, mouse fibroblasts (AID 2010); type: functional;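 also: cells exposed to compound for about 90 hours before reading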

Large T antigen, sequence (P03070 whole entry): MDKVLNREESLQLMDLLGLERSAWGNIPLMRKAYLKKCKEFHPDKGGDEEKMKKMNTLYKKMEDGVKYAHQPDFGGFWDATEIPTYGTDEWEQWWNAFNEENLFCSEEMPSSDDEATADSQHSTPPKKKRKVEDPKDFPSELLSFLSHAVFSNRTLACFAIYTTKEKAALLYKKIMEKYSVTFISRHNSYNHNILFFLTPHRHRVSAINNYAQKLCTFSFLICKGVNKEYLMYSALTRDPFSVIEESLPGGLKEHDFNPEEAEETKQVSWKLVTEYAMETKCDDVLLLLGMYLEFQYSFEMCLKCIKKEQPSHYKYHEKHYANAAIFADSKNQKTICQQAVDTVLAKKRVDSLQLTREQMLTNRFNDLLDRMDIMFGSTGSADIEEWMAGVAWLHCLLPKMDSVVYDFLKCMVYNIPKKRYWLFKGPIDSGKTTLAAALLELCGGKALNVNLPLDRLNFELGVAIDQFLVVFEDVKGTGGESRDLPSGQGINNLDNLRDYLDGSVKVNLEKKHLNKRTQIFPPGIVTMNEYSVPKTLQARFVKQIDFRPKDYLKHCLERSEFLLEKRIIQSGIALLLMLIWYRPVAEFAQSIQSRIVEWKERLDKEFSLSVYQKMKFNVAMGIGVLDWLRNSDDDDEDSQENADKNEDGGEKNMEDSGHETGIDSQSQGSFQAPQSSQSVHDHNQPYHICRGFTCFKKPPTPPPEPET

## O=c1c2ccccc2nc(/C=C/c2ccc(O)cc2)n1-c1ccccc1O
[1]
  IC50: 62.5 µM (active)

## Cc1ccc(NC(=O)Cc2nn(C)c(=O)c3ccccc23)cc1F
[2]
  AC50: 0.73 µM (active)
[3]
  AC50: 3.46 µM (active)
[4]
  AC50: 2.3 µM (active)
INS1
  AC50: 3.98 µM (active)

## Oc1nc(COc2ccc(Cl)cc2Cl)nc2ccccc12
[5]
  EC50: 0.107 µM (active)
[6]
  EC50: 0.125 µM (active)
H4
  EC50: 0.148 µM (active)

## Cc1cc(-c2cc(C)c(N)c(C)c2)cc(C)c1N
[1]
  IC50: 10.8 µM (active)

## CC(C)C(OC(=O)c1ccccc1)c1nccc2ccccc12 (centres undefined)
[5]
  EC50: 17.8 µM (active)
[6]
  EC50: 21.5 µM (active)
H4
  EC50: 39.5 µM (active)

## CCc1ccc(OC(=O)Nc2ccccc2)cc1
[5]
  EC50: > 120 µM (not active)
[6]
  EC50: 6.4 µM (active)
H4
  EC50: 7.7 µM (active)

## CCN(CC)S(=O)(=O)c1cccc(NC(=O)CNC2CCCCCC2)c1
[1]
  IC50: 185 µM (active)

## Nc1ccc(N=Nc2ccc(N)cc2)cc1
[1]
  IC50: 22 µM (active)

## O=C(Nc1ccc(-c2cn3c(n2)SCC3)cc1)c1ccc2ccccc2n1
[5]
  EC50: 24 µM (active)
[6]
  EC50: 15.5 µM (active)
H4
  EC50: 16.8 µM (active)

## CN(C)/C=C(\C#N)C(=O)Nc1ccc(O)cc1F
Large T antigen
  IC50: 17.6 µM (active)

## Cc1ccc(-c2c[n+](-c3ccc(OC(F)F)cc3)c3n2CCCCC3)cc1
INS1
  AC50: 1.52 µM (active)
[7]
  EC50: > 38 µM (not active)
[8]
  EC50: > 150 µM (inconclusive)

## CCS(=O)(=O)C1=NN2C(=N)/C(=C\c3ccc(OC(=O)c4ccco4)c(Br)c3)C(=O)N=C2S1
Large T antigen
  IC50: > 100 µM (active)

## Cc1cc(NC(=O)c2cccnc2)ccc1NC(=O)c1cc2ccccc2o1
[9]
  EC50: 17.7 µM (active)
[10]
  EC50: 18.6 µM (active)
[11]
  EC50: 20.6 µM (active)

## Cc1nnsc1-c1c(C(=O)Oc2ccccc2)c(C)nn1-c1ccccc1
[9]
  EC50: > 120 µM (not active)
[10]
  EC50: 18.8 µM (active)
[11]
  EC50: 19.8 µM (active)

## O=C(Nc1ncc(S(=O)(=O)c2ccc([N+](=O)[O-])cc2)s1)c1cccc2ccccc12
[12]
  EC50: 0.221 µM (active)
[13]
  EC50: 4.23 µM (active)
[14]
  EC50: > 60 µM (not active)

## CC(C)OC(=O)Cn1nnc2c(cnn2-c2ccccc2)c1=O
[5]
  EC50: 13.1 µM (active)
[6]
  EC50: 13.4 µM (active)
H4
  EC50: 20.7 µM (active)

## OCC1CCCN(C(=S)Nc2ccc(Nc3ccccc3)cc2)C1 (centres undefined)
[1]
  IC50: 41.8 µM (active)
Large T antigen
  IC50: 8.16 µM (active)

## Cc1ccc(Nc2nc(=O)c3cccnc3s2)cc1
[5]
  EC50: 2.71 µM (active)
H4
  EC50: > 120 µM (not active)

## CC(=O)OCC1OC(n2cc(F)c(=O)[nH]c2=O)C(OC(C)=O)C1OC(C)=O (centres undefined)
[5]
  EC50: 117 µM (active)
[6]
  EC50: > 120 µM (not active)
H4
  EC50: > 120 µM (not active)

## Cc1nn(-c2ccccn2)c2c1-c1nc(N)ncc1CC2
[5]
  EC50: 1.98 µM (active)
[6]
  EC50: 12.3 µM (active)

## CCOC(=O)c1ccc(NCn2c(=O)oc3ccccc32)cc1
[13]
  EC50: > 53 µM (inactive)

## c1ccc(-c2cn(CC3CCCCC3)nn2)cc1
[5]
  EC50: 0.236 µM (active)
[6]
  EC50: 0.146 µM (active)
H4
  EC50: > 120 µM (inconclusive)

## O=C(c1cc(-c2ccc3c(c2)OCO3)on1)N1CCCCC1
[9]
  EC50: 10.3 µM (active)
[11]
  EC50: 7.22 µM (inconclusive)

## Nc1ccc(Nc2ccccc2)c(Cl)c1
[1]
  IC50: 17.3 µM (active)

## Cc1ccc(-n2nnnc2-c2cnc(-c3cccnc3)nc2C(F)(F)F)cc1
[2]
  AC50: 5.89 µM (active)
[3]
  AC50: 57.4 µM (active)
[4]
  AC50: 23 µM (active)

## COc1ccc(COc2ccccc2C(=O)NCc2ccccc2)cc1F
[2]
  AC50: 4.76 µM (active)
[3]
  AC50: 52.4 µM (active)
[4]
  AC50: 10.1 µM (active)

## CN1CN(C)c2cccc3cccc1c23
Large T antigen
  IC50: 73.9 µM (active)

## Cn1c2ccccc2c2cc(C(=O)N3CCN(CCO)CC3)sc21
[5]
  EC50: 15.3 µM (active)
[6]
  EC50: > 120 µM (not active)
H4
  EC50: 33.8 µM (active)

## CCCCCn1c(=O)c(C(=O)NC(C)c2ccccc2)c(O)c2ccccc21 (centres undefined)
[2]
  AC50: 11.7 µM (active)
[3]
  AC50: > 70 µM (inactive)
[4]
  AC50: 6.26 µM (active)
INS1
  AC50: 5.84 µM (active)

## O=C(CN1CCN(c2ccc(O)cc2)CC1)NC(=O)NCc1ccco1
[1]
  IC50: 52.6 µM (active)

## C[C@H](NC(=O)c1[nH]cnc1C(=O)NCc1ccc(CNC(=O)OC(C)(C)C)cc1)c1ccccc1
[2]
  AC50: 11.7 µM (active)
[3]
  AC50: > 70 µM (inactive)
[4]
  AC50: 14.9 µM (active)

## COc1ccccc1CNc1nc(NCc2ccccc2OC)c2sccc2n1
[2]
  AC50: 6.33 µM (active)
[3]
  AC50: 22.1 µM (active)
[4]
  AC50: 9.79 µM (active)

## C=C1C(=O)C23C(O)C1CCC2C12COC3(O)C(O)C1C(C)(C)CCC2O (centres undefined)
[2]
  AC50: 3.3 µM (active)
[4]
  AC50: 8.14 µM (active)

## CC(C)CC(NC(=O)c1ccccc1)C(=O)N/N=C/c1ccco1 (centres undefined)
[13]
  EC50: 4.81 µM (active)

## COc1cccc(/C=N/NC(=O)c2[nH]nc3c2CCc2ccccc2-3)c1
[5]
  EC50: > 60 µM (not active)
[6]
  EC50: > 120 µM (not active)
H4
  EC50: > 120 µM (not active)

## O=C(NCCNCC(O)COc1ccc(O)cc1)N1CCOCC1 (centres undefined)
[1]
  IC50: 118 µM (active)

## Clc1ccccc1CNCc1ccc2c(c1)OCO2
[1]
  IC50: 257 µM (active)

## COc1ccc(-c2cc3ccc(OCc4nn[nH]n4)cc3oc2=O)cc1
[9]
  EC50: 14.6 µM (active)
[10]
  EC50: 13.9 µM (active)
[11]
  EC50: 13.3 µM (active)

## O=c1[nH]c(=O)c2nnc(N/N=C\c3ccc(O)cc3)nc2[nH]1
Large T antigen
  IC50: 16.8 µM (active)

## c1ccc(CNc2ncnc3c2ncn3C2CCCCO2)cc1 (centres undefined)
[5]
  EC50: 4.67 µM (active)
[6]
  EC50: 5.99 µM (active)
H4
  EC50: > 120 µM (not active)
